These results are taken from patent publication US12186377B2, “Modulation of oxidative stress and amino acid metabolism for the treatment or prevention of diseases and disorders” (NEW YORK UNIVERSITY, priority 2019, dated 2025).

Entries after “also recorded” stand apart in the source; their conditions may differ. Structures can show the parent of a compound that is named as a salt.

The subject of data set [1] is wildtype and Keap1 mutant Kras^G12D/+;p53^−/− lung adenocarcinoma cell lines. Description: Cell proliferation assay (crystal violet), drug or amino acid deprived media. The class given is cell-based, mouse. The following applies: for sensitivity of Keap1 wildtype cells to NEAA depletion under oxidant treatment: wildtype cells treated with oxidative stress agents; for rescue of cell growth under serine deprived conditions by supplementation: 0.5 mM NAC, 50 μM Trolox, 3 mM formate, 16 μM thymidine, FIG. 7A. The method, then: (§1) For cell proliferation assays conducted under different drug or media conditions as indicated, cells growing in DMEM were trypsinized, counted and plated into 12 well plate dishes (BD/Falcon) in 1 mL of RPMI media. […] For deprivation experiments, cells were washed with PBS and media was replaced with 1 mL of complete RPMI or RPMI lacking indicated amino acid and supplemented with 10% dialyzed FBS and cells were re-treated with indicated drugs. RPMI was prepared from a powder mix without amino acids (US Biological) according to manufacturer's instructions. All other amino acids besides those indicated were added to the RPMI mixture in the same concentrations present in RPMI-1640 formulation (Cellgro, Corning). Proliferation experiments were carried out for 5 days post drug treatment and collected by staining. Cells were stained with a 0.5% crystal violet (Fisher) solution in 20% methanol. Plates were then washed, dried, and crystal violet was eluted in 400 μL of 10% acetic acid.

In data set [2] the test system is wildtype vs Keap1 mutant Kras^G12D/+;p53^−/− lung adenocarcinoma cells. Description: Cell viability assay (cell titer glo). In kind it is cell-based, mouse. The method, then: For cell viability assays cells were plated in a white, opaque 96-well plate with clear bottom at a density of 1000 cells/well in RPMI or RPMI with modified amino acid content. After attachment, CB-839 (Selleck) or L-Asparaginase (AbCam) were added at the indicated concentrations. After 3 days, cell viability in the presence of all compounds was assessed by cell titer glo (Promega).
On the technique in general: In ATP-based viability assays light output follows the ATP content of the culture.

Data set [3] has as its system Keap1 mutant subcutaneous tumors. Description: Subcutaneous tumor growth, Keap1 mutant tumors. The class given is in vivo, C57B6 mice. The method, then:
(§2) 5×10^5 cells were implanted subcutaneously into C57B6 mice. Tumor volume was measured by caliper and volume was calculated (Length×Width^2×0.5). After tumor establishment phase (tumor volume ˜50 mm^3), animals were randomized and assigned to a treatment group. Animals either received an amino acid control diet, diet lacking both serine and glycine, or a diet lacking asparagine (Envigo and TestDiet), 200 mg/kg CB-839 or vehicle (Calithera) twice daily administered through oral gavage as previously described (Davidson et al., 2016, Cell Metab 23, 517-528), 60 U of L-Asparaginase (Abcam) or vehicle once daily administered through intraperitoneal injection as before (Knott et al., 2018, Nature 554, 378-381) or some treatment combination as indicated.

For data set [4], the system named is wildtype vs Keap1 mutant Kras^G12D/+;p53^−/− lung adenocarcinoma cells. The following applies: previously shown (Romero 2017; Sayin 2017); cited from earlier work.
Data set [5] deals with wildtype subcutaneous tumors. Description: Subcutaneous tumor growth, wildtype tumors. In kind it is in vivo, C57B6 mice. The method, then:
as §2

Data set [6] has as its system wildtype vs Keap1 mutant cells. Description: GC/MS analysis of polar metabolites and stable isotope tracing in cells. The class given is cell-based, mouse. Conditions: for serine and glycine synthesis from [U^13C]-D glucose: serine depleted conditions, 250 nM CB-839 or 6 mM glutamate, FIG. 7E.
Method: For analysis of cells, 1×10^5 cells were seeded in 1 mL of RPMI-1640 in 12 well plates. […] Media was then replaced with fresh RPMI lacking serine or asparagine where indicated and supplement with 10% FBS. For tracing experiments media contained 11 mM [U^13C]-D-glucose, 2 mM [U^13C]-L-glutamine, 2 mM [α^15N]-L-glutamine, or 285 μM [U^13C]-L-serine (Cambridge Isotope Laboratory). Cells were treated with 250 nM CB-839 and cultured for 1-3 hours. Cells were washed 2× in ice cold saline and then collected by scraping in 250 μL of 80% (v/v) of ice cold methanol containing 1.4 μg/mL norvaline (Sigma Aldrich). Samples were vortexed for 10 min at 4° C. and then centrifuged at max speed for 5 minutes. Supernatant was transferred to fresh tubes and then dried in a speed vac. For analysis of mouse plasma, whole blood was collected at the time of sacrifice by a retro-orbital bleed with heparin coated capillary tubes (Fisher) into EDTA containing microcentrifuge tubes. Whole blood was centrifuged for 5 minutes at 1600 g. Cleared plasma was transferred to fresh tubes and 4 μL of plasma was then aliquoted and used for analysis. 80% (v/v) methanol containing 1.4 μg/mL norvaline was added to plasma and samples were then dried in a speed vac. […] After derivatization, samples were analyzed by GC-MS using an HP-5MS column (Agilent Technologies) in an Agilent Intuvo gas chromatograph coupled to an Agilent 5997B mass spectrometer. […]
The MS system operated under electron impact ionization at 70 eV and the MS source and quadrupole were held at 230° C. and 150° C. respectively the detector was used in scanning mode, and the scanned ion range was 10-650 m/z. Mass isotopomer distributions were determined by integrating the appropriate ion fragments for each metabolite (Lewis et al., 2014, Molecular cell 55, 253-263) using MATLAB (Mathworks) and an algorithm adapted from Fernandez and colleagues (Fernandez et al., 1996, Journal of mass spectrometry: JMS 31, 255-262) that corrects for natural abundance.
The subject of a further data set is KPKJ wt and KPKJ V cells. Description: Cell ROS level, DCFCA assay (FACS). In kind it is cell-based, mouse. Conditions: positive control. The method, then: TET+ stands for 3 days treatment of 1 μg/ml doxycycline for inducing shRNA expression. G6PD knockdown induces more ROS in Keap1 wildtype cells. Keap1 mutants show lower cell ROS. ROS level was measured by DCFCA assay. G6PD KO induces accumulation of ROS in Keap1 wildtype cells. Measured by FACS (DCFCA assay.) TET treatment 4 day before measuring. H2O2 positive control is about 200-fold increase.

Data set [7] relates to murine Kras^G12D/+;p53^−/− pancreatic ductal adenocarcinoma cell line. Description: Proliferation / viability of pancreatic cancer cell line. In kind it is cell-based, mouse. The following applies: pre-treated with 1 μM KI696; 0.036 U/mL L-asparaginase 3 days, FIG. 5C, 5D. The method, then: RPMI was prepared from a powder mix without amino acids (US Biological) according to manufacturer's instructions. All other amino acids besides those indicated were added to the RPMI mixture in the same concentrations present in RPMI-1640 formulation (Cellgro, Corning). Proliferation experiments were carried out for 5 days post drug treatment and collected by staining. Cells were stained with a 0.5% crystal violet (Fisher) solution in 20% methanol. Plates were then washed, dried, and crystal violet was eluted in 400 μL of 10% acetic acid.

The subject of data set [8] is LKR (Kras^G12D/+;p53^+/+) cell lines. Description: Cell proliferation assay in media lacking serine or asparagine, LKR lines. The class given is cell-based, mouse. Conditions: pre-treated with KI696 (11 μM printed elsewhere in the source), FIG. 5B. The method, then: as §1
For data set [9] the following is noted: Davies et al., 2016; cited from earlier work.
For data set [10], the system named is KPKJ Vector (Keap1 KO) cells transduced with sgG6pd and sgPGD. Description: Colony formation assay, metabolite rescue of G6PD KO / PGD KO cells. In kind it is cell-based, mouse. The following applies: FIG. 18. The text has this: Colony formation assay of KPKJ Vector (Keap1 KO) cells transduced with sgTom, sgG6pd and sgPGD, and rescued with several metabolites.

Another data set deals with KP or KPK cells. Description: Cell viability with exogenous heme/hemin after Alas1 knock-down/out. In kind it is cell-based, mouse. The text has this:
FIG. 36A depicts the cell viability of KP or KPK cells with guide RNAs against Alas1 or control in the presence of increasing amounts of Heme/Hemin.
FIG. 37A depicts a western blot validation of control or Alas1 targeting shRNAs in KP/KPK cells. FIG. 37B depicts the relative viability of KP/KPK cells in response to doxycycline inducible shRNA knockdown of Alas1.

In a further data set the test system is KPK cells. Description: Western blot of Alas1 and Hmox1 with exogenous heme/hemin. The class given is cell-based, mouse. Conditions: increasing amounts of exogenous heme/hemin, FIG. 36B. Background: A western blot detects proteins with antibodies after separation by electrophoresis.
Data set [11] can be described thus: GC/MS plasma amino acid levels in tumor-bearing mice. In kind it is in vivo. The following applies: L-asparaginase vs asparagine deficient diet, FIG. 11A. The method, then:
For analysis of cells, 1×10^5 cells were seeded in 1 mL of RPMI-1640 in 12 well plates. […] Media was then replaced with fresh RPMI lacking serine or asparagine where indicated and supplement with 10% FBS. For tracing experiments media contained 11 mM [U^13C]-D-glucose, 2 mM [U^13C]-L-glutamine, 2 mM [α^15N]-L-glutamine, or 285 μM [U^13C]-L-serine (Cambridge Isotope Laboratory). Cells were treated with 250 nM CB-839 and cultured for 1-3 hours. Cells were washed 2× in ice cold saline and then collected by scraping in 250 μL of 80% (v/v) of ice cold methanol containing 1.4 μg/mL norvaline (Sigma Aldrich). Samples were vortexed for 10 min at 4° C. and then centrifuged at max speed for 5 minutes. Supernatant was transferred to fresh tubes and then dried in a speed vac. For analysis of mouse plasma, whole blood was collected at the time of sacrifice by a retro-orbital bleed with heparin coated capillary tubes (Fisher) into EDTA containing microcentrifuge tubes. Whole blood was centrifuged for 5 minutes at 1600 g. Cleared plasma was transferred to fresh tubes and 4 μL of plasma was then aliquoted and used for analysis. […] After derivatization, samples were analyzed by GC-MS using an HP-5MS column (Agilent Technologies) in an Agilent Intuvo gas chromatograph coupled to an Agilent 5997B mass spectrometer. […]

Setting [12] is: 60 U once daily intraperitoneal, FIG. 9B.

Take `CC(=O)OC[C@H]1O[C@@H]([S-])[C@H](OC(C)=O)[C@@H](OC(C)=O)[C@@H]1OC(C)=O.CCP(CC)CC.[Au+]` [Auranofin, 3,4,5-triacetyloxy-6-(acetyloxymethyl) oxane-2-thiolate; triethylphosphanium]: in data set [1], the “sensitivity of Keap1 wildtype cells to NEAA depletion under oxidant treatment” value (“sensitivity of Keap1 wildtype cells” below) is “sensitized to NEAA depletion”.

In the case of `CCCCS(=N)(=O)CCC(N)C(=O)O` [BSO, L-buthionine-sulfoximine], the “sensitivity of Keap1 wildtype cells” value in [1] was “sensitized to NEAA depletion”.

As for `O=C(Cc1cccc(OC(F)(F)F)c1)Nc1ccc(CCCCc2nnc(NC(=O)Cc3ccccn3)s2)nn1` [CB-839], the “effect of very low doses of CB-839 alone on cell growth” value in data set [2] (CB-839 alone) was “do not affect cell growth”. The “sensitivity to very low doses of CB-839 with L-asparaginase” value in [2] (Keap1 mutant cells, 0.1 U/mL L-asparaginase, FIG. 6I) is reported as “increased sensitivity”. Also, the “sensitivity to very low doses of CB-839 in reduced serine” value in data set [2] (Keap1 mutant cells, serine at 10% of normal concentration, FIG. 6J) is reported as “increased sensitivity”. Besides, in data set [3] (200 mg/kg twice daily oral gavage, FIG. 9E), the “growth of Keap1 mutant tumors, CB-839 alone” value is listed as “sensitive”. Also, in [3] (compared to either monotherapy, FIG. 9E), the “growth of Keap1 mutant tumors, CB-839 with −SG diet” value is on record as “further reduced Keap1 mutant tumor growth”. For the same compound, the “sensitivity of Keap1 mutant cells to CB-839” value in [4] is “highly sensitive”. Also, the “growth of wildtype tumors, CB-839 alone” value in data set [5] (200 mg/kg twice daily oral gavage, FIG. 9F) was “no effect on wildtype tumor growth”. In data set [5] (diet lacking serine and glycine, FIG. 9F), the “growth of wildtype tumors, CB-839 with −SG diet” value is “strong synergistic effect and significantly reduced wildtype tumor growth; also recorded: strongly sensitizes Keap1 wildtype tumors to dietary restriction of serine and glycine”. In addition, the “serine and glycine synthesis from [U^13C]-D glucose” value in data set [6] is “decrease in both serine and glycine synthesis”.

In the case of `COC(=O)/C=C/C(=O)OC` [DMF, di-methyl fumarate], in data set [1], the “sensitivity of Keap1 wildtype cells” value is listed as “sensitized to NEAA depletion”.

Consider `OO` [H2O2], for which the “cell ROS level increase” value in the data set on KPKJ wt and KPKJ V cells is given as “about 200 fold”.

Take `COc1cc([C@@H](CC(=O)O)c2ccc(C)c(CN3C[C@@H](C)Oc4ccccc4S3(=O)=O)c2)cc2nnn(C)c12` [KI696]: the “growth upon serine deprivation or L-asparaginase treatment after Nrf2 activation” value in data set [7] is listed as “robust growth suppression”. For the same compound, the “proliferation in media lacking serine or asparagine, p53 wildtype LKR lines” value in [8] is “growth suppression”. In data set [9], the pharmacokinetics result was “prevent its efficient use in vivo”.

For the compound `CC(=O)N[C@@H](CS)C(=O)O` [NAC, N-acetyl-L-cysteine], the “rescue of cell growth under serine deprived conditions by supplementation” value (shortened to “rescue of cell growth”) in data set [1] (Keap1 mutant cells) is recorded as “did not rescue cell growth”. Also, the “G6PD KO rescue (colony formation)” value in data set [10] was “No rescue”.

For the compound `Cc1c(C)c2c(c(C)c1O)CCC(C)(C(=O)O)O2` (stereo not drawn) [Trolox], the “rescue of cell growth” value in data set [1] (Keap1 mutant cells) is “did not rescue cell growth”. Besides, the “G6PD KO rescue (colony formation)” value in data set [10] was “No rescue”.

As for `O=C(O)CCC(=O)C(=O)O` [a-KG], the “G6PD KO rescue (colony formation)” value in data set [10] is “can rescue G6PD KO cells; also recorded: Completely rescue”.

Regarding `C[C@H](N)C(=O)O` [alanine], the “proliferation on alanine supplementation” value in data set [1] (Keap1 mutant cells, RPMI 10% dialyzed FBS, FIG. 2D) is listed as “increase in cancer cell proliferation”.

Regarding `O=CO` [formate], the “rescue of cell growth” value in data set [1] (Keap1 mutant cells) is recorded as “complete rescue of cell growth”.

Take `N[C@@H](CCC(=O)O)C(=O)O` [glutamate]: the “G6PD KO rescue (colony formation)” value in [10] was “can rescue G6PD KO cells; also recorded: Completely rescue”. Further, the intracellular glutamate levels entry in data set [6] (Keap1 mutant cells, 500 nM Erastin or 6 mM glutamate, FIG. 6B, 6C) is on record as “significantly increased intracellular glutamate levels”. Moreover, the “serine and glycine synthesis from [U^13C]-D glucose” value in [6] was “increase in both serine and glycine synthesis”.

`C=CC1=C(C)c2cc3[n-]c(cc4[n-]c(cc5nc(cc1n2)C(C)=C5C=C)c(C)c4CCC(=O)O)c(CCC(=O)O)c3C.[Fe+2]` [heme/hemin]: the “rescue of growth defects after shRNA knockdown of Alas1” value in the data set with KP or KPK cells (KP/KPK cells, doxycycline inducible shRNA, FIG. 37B) is reported as “completely rescues any growth defects”. Also, the “exogenous heme needed to rescue growth” value in the data set on KP or KPK cells (Keap1-mutant (KPK) vs KP cells with guide RNAs against Alas1, FIG. 36A) was “require higher levels of exogenous heme to rescue growth”. In the data set on KPK cells, the Alas1 protein level result is on record as “decrease Alas1” and the Hmox1 protein level result is “increase Hmox1”.

For the compound `Cc1cn([C@H]2C[C@H](O)[C@@H](CO)O2)c(=O)[nH]c1=O` [thymidine], the “rescue of cell growth” value in data set [1] (Keap1 mutant cells) is recorded as “complete rescue of cell growth”.

Regarding L-asparaginase, the “relative viability on L-asparaginase treatment” value in [2] (Keap1 mutant vs wildtype cells, RPMI, 3 days, FIG. 1D) is “increased sensitivity”. In addition, in data set [3] (setting [12]), the “growth of Keap1 mutant tumors, L-asparaginase” value is “blunted growth”. Moreover, the “growth of Keap1 mutant tumors, L-asparaginase alone or with asparagine free diet” value in [3] (FIG. 9D) was “strongly blunts the growth”. Also, in data set [5] (setting [12]), the “growth of wildtype tumors, L-asparaginase” value is given as “not wildtype tumors”. Moreover, the “plasma levels of asparagine” value in data set [11] is “more effective at reducing plasma levels of asparagine than the asparagine diet”.
